Test results reported in patent US20070208173A1, “CRYSTALLINE HYDRATES OF CEFDINIR CALCIUM SALT” (priority 2006, published 2007).

Assays:
Type in all cases: physicochemical
Stability to temperature = conditions: temperatures between about 25° C. and about 55° C.
Protocol: (§1) Cefdinir, calcium salt pentahydrate is stable at temperatures between about 25° C. and about 55° C.

[1] = Moisture Sorption/Desorption
Protocol: as §1

Solubility in solvents = test: Solubility in solvents
Protocol: as §1

For `C=CC1=C(C(=O)[O-])N2C(=O)[C@@H](NC(=O)/C(=N\O)c3csc(N)n3)[C@H]2SC1.C=CC1=C(C(=O)[O-])N2C(=O)[C@@H](NC(=O)/C(=N\O)c3csc(N)n3)[C@H]2SC1.O.O.O.O.O.[Ca+2]` (single isomer, unassigned) [Cefdinir, calcium salt pentahydrate, calcium (6R-(6α,7β(Z)))-7-(((2-amino-1,3-thiazol-4-yl)(hydroxyimino)acetyl)amino)-3-ethenyl-8-oxo-5-thia-1-azabicyclo[4.2.0]oct-2-ene-2-carboxylate (cefdinir, calcium salt, syn-isomer) pentahydrate], the stability at temperature (Stability to temperature) was “stable”, the “Weight” value ([1]; Time 0.1 min, 24.9 ° C., Rel. Humid. 51.63 (start)) was 6.2888 mg and the “Weight” value ([1]; Time 32.6 min, 25.0 ° C., Rel. Humid. 4.83) was 6.2448 mg. The “Weight” value ([1]; Time 48.6 min, 25.0 ° C., Rel. Humid. 14.82) was 6.2605 mg, the “Weight” value ([1]; Time 61.7 min, 25.0 ° C., Rel. Humid. 24.85) was 6.2704 mg and the “Weight” value ([1]; Time 74.6 min, 25.0 ° C., Rel. Humid. 34.82) was 6.2782 mg. The “Weight” value ([1]; Time 87.6 min, 24.9 ° C., Rel. Humid. 44.75) was 6.2849 mg, the “Weight” value ([1]; Time 100.6 min, 25.0 ° C., Rel. Humid. 54.93) was 6.2910 mg and the “Weight” value ([1]; Time 113.6 min, 25.0 ° C., Rel. Humid. 64.86) was 6.2957 mg. For the same compound, the “Weight” value ([1]; Time 125.2 min, 25.0 ° C., Rel. Humid. 74.81) was 6.3005 mg, the “Weight” value ([1]; Time 138.9 min, 25.0 ° C., Rel. Humid. 84.80) was 6.3064 mg and the “Weight” value ([1]; Time 220.7 min, 25.1 ° C., Rel. Humid. 94.58) was 6.3638 mg. The “Weight” value ([1]; Time 241.5 min, 25.1 ° C., Rel. Humid. 85.41 (desorption)) was 6.3265 mg, the “Weight” value ([1]; Time 256.2 min, 25.1 ° C., Rel. Humid. 75.18 (desorption)) was 6.3087 mg and the “Weight” value ([1]; Time 271.2 min, 25.1 ° C., Rel. Humid. 65.07 (desorption)) was 6.3015 mg. For the same compound, the “Weight” value ([1]; Time 284.1 min, 25.1 ° C., Rel. Humid. 55.11 (desorption)) was 6.2965 mg, the “Weight” value ([1]; Time 300.4 min, 25.1 ° C., Rel. Humid. 45.16 (desorption)) was 6.2899 mg and the “Weight” value ([1]; Time 313.1 min, 25.1 ° C., Rel. Humid. 35.08 (desorption)) was 6.2827 mg. The “Weight” value ([1]; Time 326.1 min, 25.0 ° C., Rel. Humid. 25.12 (desorption)) was 6.2745 mg, the “Weight” value ([1]; Time 338.7 min, 25.0 ° C., Rel. Humid. 15.13 (desorption)) was 6.2650 mg and the “Weight” value ([1]; Time 360.9 min, 25.0 ° C., Rel. Humid. 5.03 (desorption)) was 6.2484 mg. For the same compound, the solubility in acetone (Solubility in solvents; acetone) was “less than 1 mg/mL”, the solubility in acetonitrile (Solubility in solvents; acetonitrile) was “less than 1 mg/mL” and the solubility in dichloromethane (Solubility in solvents; dichloromethane) was “less than 1 mg/mL”. For the same compound, the solubility in dimethylsulfoxide (Solubility in solvents; dimethylsulfoxide) was “greater than 96 mg/mL”, the solubility in ethanol (Solubility in solvents; ethanol) was “less than 1 mg/mL” and the solubility in methanol (Solubility in solvents; methanol) was “less than 1 mg/mL”. The solubility in water (Solubility in solvents; water) was “about 3 mg/mL”.
